15 compounds from US6867214B1, “Quinazoline derivatives and pharmaceutical applications thereof” (Daiichi Suntory Pharma Co., Ltd., priority 1998, dated 2005) can be followed below.

A word on the IC50: it is the midpoint of a concentration-inhibition curve. As usually defined, the half-life is the time needed for the level to fall by half in the phase considered. A lower half-life goes with fast loss.

The first data set has as its target T1, Human heart chymase (Homo sapiens, UniProt P23946).
T1 construct: Human heart chymase was purified according to the method of Urata et al; from tissue; host or cells: human heart
T1 sequence (P23946 22-247): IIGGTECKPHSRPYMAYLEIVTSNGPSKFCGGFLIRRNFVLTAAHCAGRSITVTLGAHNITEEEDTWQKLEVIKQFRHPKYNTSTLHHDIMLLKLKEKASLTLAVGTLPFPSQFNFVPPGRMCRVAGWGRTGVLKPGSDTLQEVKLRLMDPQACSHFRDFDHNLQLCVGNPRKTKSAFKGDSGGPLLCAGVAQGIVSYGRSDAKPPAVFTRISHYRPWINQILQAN
Description: Measurement of chymase inhibitory activity. It is filed as biochemical. As to conditions: purified human heart chymase, substrate Suc-Ala-Ala-Pro-Phe-MCA, pH 7.5, 30° C., 10 min preincubation. The method, then: Human heart chymase was purified according to the method of Urata et al. (J. Biol. Chem., 1990, 265, 22348). The inhibitory activity of the quinazoline derivatives of the present invention with respect to chymase was measured in the following manner. That is, the purified enzyme solution was diluted to a suitable concentration with 0.1M tris-hydrochloride buffer (pH=7.5), 1M sodium chloride, and 0.01% TritonX-100 to In obtain an enzyme solution. A 10 mM dimethyl sulfoxide (hereinafter referred to as DMSO) solution of Suc-Ala-Ala-Pro-Phe-MCA (Peptide Institute) was diluted 20-fold at the time of use by 0.1M tris-hydrochlorate, 1M sodium chloride, and 0.01% TritonX-100 to obtain the substrate solution.
75 μl of the enzyme solution warmed to 30° C. was mixed with 5 μl of DMSO solution of the test sample. The mixture was preincubated at 30° C. for 10 minutes. Next, 20 μl of a substrate solution warmed to 30° C. was mixed with the test sample-enzyme mixture and incubated at 30° c. After 10 minutes, 50 μl of 30% acetic acid was added to stop the enzymatic reaction. The amount of the AMC produced was quantified using a fluorescent photometer. At the same time, a blind test was carried out by adding, instead of the test sample solution, 5 μl of DMSO and performing the same reaction. […]
`CC(C(=O)O)C(=O)Nc1cccc(S(=O)(=O)n2c(=O)[nH]c3cc(Cl)ccc3c2=O)c1` (centres unmarked) [Example 13, 2-{3-[(7-chloro-2,4(1H,3H)-quinazolinedion-3-yl)sulfonyl]phenylaminocarbonyl}propionic acid] gave an IC50 of 300 nM.

Another data set relates to human chymase induced vascular permeability. Description: Test of human chymase induced vascular permeability exacerbation reaction. It is filed as in vivo, Wister male rats. As to conditions: 10 mg/kg orally, 30 minutes before intracutaneous human chymase (20 mU), rat back skin, Evans Blue. On the procedure:
Wister male rats (body weight 200 to 220 g, Charles River Japan) were used. In the backs of the rats from which the hair had been shaved off, 100 μl (20 mU: 1U being amount of enzyme for producing 1 nmol of AMC in 1 minute from Suc-Ala-Ala-Pro-Phe-MCA at pH7.5 and 30° C.) of a solution of the human chymase enzyme solution purified in evaluation Example 1 diluted 100-fold by PBS (phosphate buffered saline) was injected intracutaneously, then immediately thereafter a 0.5% (w/w) Evans Blue solution was administered from the tail artery. After 30 minutes, the rats were sacrificed by draining their blood under anesthesia with ether and the amount of dye leaking out to the back skin was measured. The region of the skin where the dye leaked out was cut off and 1.0 ml of 1N KOH solution was added and the resultant mixture was allowed to stand at 37° C. overnight. Next, 4 ml of an acetone-0.6N phosphoric acid (13:5) mixture was added to extract the dye. The absorbance at 650 nm of the supernatant was measured. […]
Next, 10 mg/kg of the compound of Example 18 was orally administered. 30 minutes later, 100 μl (20 mU) of human chymase the same as the non-drug administered group was injected intracutaneously and the amount of dye leaked out similarly measured. The rate of suppression of the amount of dye leakage due to the compound was calculated according to the following calculation formula. […]
Regarding `Nc1cc(S(=O)(=O)n2c(=O)[nH]c3cc(Cl)ccc3c2=O)ccc1C(=O)[O-].[Na+]` [Example 18, 4-[(7-chloro-2,4(1H,3H)-quinazolinedion-3-yl)sulfonyl]anthranilic acid monosodium salt], the “Rate of suppression of amount of leakage of dye” value is given as 64%.

Test system in another data set: not given
Test: not given
As to conditions: human, plasma, pH 7.2.
The compound `CC(C(=O)O)C(=O)Nc1cccc(S(=O)(=O)n2c(=O)[nH]c3cc(Cl)ccc3c2=O)c1` (centres unmarked) [Example 13, 2-{3-[(7-chloro-2,4(1H,3H)-quinazolinedion-3-yl)sulfonyl]phenylaminocarbonyl}propionic acid] had a t1/2 of 1.62 h.

Test system in a further data set: not listed separately
As to the kind of experiment: Test of stability in human plasma. As to conditions: pH 7.2.
Description: Human plasma was diluted two-fold with 50 mM sodium phosphate buffer (pH=7.2) for use as the test plasma solution. The test sample was made a DMSO solution of 1 mM concentration.
198 μl of the above two-fold diluted plasma solution warmed to 37° C. was added to 2 μl of the test sample DMSO solution and the resultant mixture was stirred and incubated at 37° C. After 0, 5, and 15 minutes, 800 μl of acetonitrile was mixed with the test sample-plasma mixture to remove the protein, then a centrifugation operation (12,000 rpm, 1 minute) was carried out and the supernatant obtained. This was diluted two-fold with distilled water and measured for of the test sample by HPLC analysis.
For the rate of recovery from the plasma, the rates of recovery at different times were calculated based on a calibration line of the test sample in a DMSO standard solution. The half-life (t1/2) in plasma was calculated by exponential recurrence analysis from the rates of recovery of these different times.
The compound `COc1ccc(S(=O)(=O)n2c(=O)[nH]c3cc(Cl)ccc3c2=O)cc1NC(C)=O` [Example 22, 3-(3-acetamide-4-methoxybenzenesulfonyl)-7-chloro-2,4(1H,3H)-quinazolinedione] showed a half-life at 10 µM of 1.73 h.
In turn, `O=c1[nH]c2cc(Cl)ccc2c(=O)n1S(=O)(=O)c1cccc(O)c1` [Example 1, 7-chloro-3-(3-hydroxybenzenesulfonyl)-2,4(1H,3H)-quinazolinedione] displayed a half-life at 10 µM of 1.3 h.
Same read-out and setting: the value for `Nc1cc(S(=O)(=O)n2c(=O)[nH]c3cc(Cl)ccc3c2=O)ccc1C(=O)[O-].[Na+]` [Example 18, 4-[(7-chloro-2,4(1H,3H)-quinazolinedion-3-yl)sulfonyl]anthranilic acid monosodium salt] was 1.72 h; that for `O=C(O)C1Oc2ccc(S(=O)(=O)n3c(=O)[nH]c4cc(Cl)ccc4c3=O)cc2NC1=O` (racemic) [Example 29, (±)-6-[(7-chloro-2,4(1H,3H)-quinazolinedion-3-yl)sulfonyl]-3-oxo-1,4-benzoxazine-2-carboxylic acid] was above 4 h.
The same measure, in the same setting: the value for `COc1ccc(S(=O)(=O)n2c(=O)[nH]c3cc(Cl)ccc3c2=O)cc1NS(C)(=O)=O` [Example 24, 7-chloro-3-(4-methoxy-3-methylsulfonylaminobenzenesulfonyl)-2,4(1H,3H)-quinazolinedione] was 1.32 h.
With `O=C([O-])c1ccc(S(=O)(=O)n2c(=O)[nH]c3cc(Cl)ccc3c2=O)cc1O.[Na+]` [Example 16, 4-[(7-chloro-2,4(1H,3H)-quinazolinedion-3-yl)sulfonyl]salicylic acid monosodium salt], the half-life at 10 µM was above 4 h.
Still for that read-out and setting: the same measure for `Nc1cc(S(=O)(=O)n2c(=O)[nH]c3cc(Cl)ccc3c2=O)ccc1Cl` [Example 8, 3-(3-amino-4-chlorobenzenesulfonyl)-7-chloro-2,4(1H,3H)-quinazolinedione]: 0.483 h.
In turn, `COc1ccc2c(=O)n(S(=O)(=O)c3ccc(C(=O)O)c(N)c3)c(=O)[nH]c2c1` [Example 27, 4-[(7-methoxy-2,4(1H,3H)-quinazolinedion-3-yl)sulfonyl]anthranilic acid] had a half-life at 10 µM of 4.38 h.
On the same count and under the same terms, the same measure for `CS(=O)(=O)O.Nc1cccc(S(=O)(=O)n2c(=O)[nH]c3cc(Cl)ccc3c2=O)c1` [Example 34, 3-(3-aminobenzenesulfonyl)-7-chloro-2,4-(1H,3H)quinazolinedion methanesulfonic acid salt]: 11.8 h.
Same read-out and setting: the value for `Cc1ccc(S(=O)(=O)n2c(=O)[nH]c3cc(Cl)ccc3c2=O)cc1N` [Example 10, 3-(3-amino-4-methylbenzenesulfonyl)-7-chloro-2,4(1H,3H)-quinazolinedione] was 2.78 h.
On the same count and under the same terms, the same measure for `Nc1ccccc1S(=O)(=O)n1c(=O)[nH]c2cc(Cl)ccc2c1=O` [Example 2]: 2.92 h; for `Nc1cc(S(=O)(=O)n2c(=O)[nH]c3cc(Cl)ccc3c2=O)ccc1C(=O)O` [Example 17, 4-[(7-chloro-2,4(1H,3H)-quinazolinedion-3-yl)sulfonyl]anthranilic acid]: 4.33 h.
On to `Nc1cccc(S(=O)(=O)n2c(=O)[nH]c3cc(Cl)ccc3c2=O)c1` [Example 12, 3-(3-aminobenzenesulfonyl)-7-chloro-2,4(1H,3H)-quinazolinedione], for which the half-life at 10 µM was found to be 4.15 h.
As for `Nc1cc(S(=O)(=O)n2c(=O)[nH]c3ccc(Cl)cc3c2=O)ccc1C(=O)O` [Example 32, 4-[(6-chloro-2,4(1H,3H)-quinazolinedion-3-yl)sulfonyl]anthranilic acid], the half-life at 10 µM is 1.23 h.
